Our source for the IC50 values is patent US8329726B2, “Inhibitors of VEGF receptor and HGF receptor signaling” (MethylGene Inc., priority 2005, dated 2012).

Some results are limits rather than exact numbers.

For orientation: IC50 means the concentration that inhibits the measured activity by half.

One experiment concerns DU145. Kind of experiment: DU145 scattering inhibition (HGF dependent scattering). It is filed as cell-based. Particulars: Homo sapiens, DU-145; HGF dependent scattering, DU145 cells; read-out: DU145 SCATTERING INHIB IC50. The source says: (§1) HGF has well known activity in terms of inducing scattering and migration (wound healing) (Wells et al., Cell Motil Cytoskeleton. 2005 November 62(3):180-94; Miura et al., Urology 2001 December 58(6):1064-9; Nishimura et al., Int J Urol. 1998 May 5(3):276-81; Wang et al., Mol Cancer Ther. 2003 November; 2(11):1085-92; and Christensen et al., Cancer Res. 2003 Nov. 1; 63(21):7345-55).

The subject of the next experiment is A549. The experiment in a line: A549 wound healing inhibition (HGF dependent migration). Conditions: Homo sapiens, A549 cells, read-out: A549 WOUND HEALING INHIB IC50. Type of experiment: cell-based.
From the text: as §1

Experiment [1] has as its target T1, recombinant human c-Met/HGF receptor (Homo sapiens, UniProt P08581).
T1 construct: His tag (pBlueBacHis2A vector); made in house; host or cells: Hi-5 cells (Trichoplusia ni), baculovirus
The experiment in a line: In vitro receptor tyrosine kinase assay (DELFIA), c-Met/HGF receptor. It is filed as biochemical. Particulars: read-out: CMET IC50. The protocol: Cell pellets were frozen at −80° C. until purification was performed.
The coated plates were washed and stored at 4° C. […] After incubation, the kinase reactions were quenched with EDTA and the plates were washed.

In a further experiment the target is T2, VEGF receptor KDR (Homo sapiens, UniProt P35968).
T2 construct: made in house; host or cells: Sf9 cells (Spodoptera frugiperda), baculovirus
T2 sequence (P35968 806-1356): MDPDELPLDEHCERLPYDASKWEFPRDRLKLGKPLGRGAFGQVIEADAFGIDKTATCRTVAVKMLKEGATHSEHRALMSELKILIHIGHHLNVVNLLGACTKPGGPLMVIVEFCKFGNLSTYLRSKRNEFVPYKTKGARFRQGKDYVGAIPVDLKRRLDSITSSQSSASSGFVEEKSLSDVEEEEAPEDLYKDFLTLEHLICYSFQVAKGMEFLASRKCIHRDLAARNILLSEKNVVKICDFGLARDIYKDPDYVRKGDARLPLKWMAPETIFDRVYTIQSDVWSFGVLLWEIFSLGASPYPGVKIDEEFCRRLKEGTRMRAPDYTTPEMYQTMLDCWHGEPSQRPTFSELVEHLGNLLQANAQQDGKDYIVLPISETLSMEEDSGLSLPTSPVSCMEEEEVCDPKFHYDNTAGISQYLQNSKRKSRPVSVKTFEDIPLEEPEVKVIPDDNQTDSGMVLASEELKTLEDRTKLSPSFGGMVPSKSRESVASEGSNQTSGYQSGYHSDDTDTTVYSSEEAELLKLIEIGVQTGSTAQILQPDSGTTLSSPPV
Kind of experiment: In vitro receptor tyrosine kinase assay (DELFIA), VEGF receptor KDR. Type of experiment: biochemical. Particulars: read-out: VEGFR IC50.

T1 sequence (P08581 1078-1337): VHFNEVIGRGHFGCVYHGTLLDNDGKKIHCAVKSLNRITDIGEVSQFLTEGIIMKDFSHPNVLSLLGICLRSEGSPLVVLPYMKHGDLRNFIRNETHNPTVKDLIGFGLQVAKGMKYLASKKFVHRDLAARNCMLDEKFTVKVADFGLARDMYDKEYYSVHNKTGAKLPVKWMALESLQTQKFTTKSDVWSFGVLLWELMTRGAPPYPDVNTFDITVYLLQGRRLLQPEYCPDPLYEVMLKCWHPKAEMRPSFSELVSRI

In the case of `CCn1cnc(-c2cc3nccc(Oc4ccc(NC(=O)C5(C(=O)N(C)c6ccc(F)cc6)CC5)cc4F)c3s2)c1`, the IC50 in the experiment with DU145 is greater than 10000 nM; in the experiment on A549, greater than 10000 nM; in experiment [1], 250 to 500 nM; at VEGF receptor KDR it was less than 50 nM.
`CN1CCN(Cc2ccc(-c3cc4ncnc(Oc5ccc(NC(=O)CC(=O)Nc6ccccc6)cc5F)c4s3)cc2)CC1`: the IC50 in the experiment with DU145 is 1000 to 5000 nM; in the experiment with A549 it was greater than 10000 nM; in experiment [1] it was 50 to 250 nM; on VEGF receptor KDR, less than 50 nM.
For `CN(c1ccc(NC(=O)C2CCN(c3ccccc3)C2=O)cc1F)c1ccnc2cc(-c3cn(C)cn3)sc12` (stereo not drawn), the IC50 was 1000 to 5000 nM in the experiment with DU145, 1000 to 5000 nM with A549, 50 to 250 nM in experiment [1] and greater than 500 nM at VEGF receptor KDR.
For the molecule `CN1CCN(Cc2ccc(-c3cc4nccc(Oc5ccc(NC(=O)C6CCN(c7ccccc7)C6=O)cc5F)c4s3)cc2)CC1` (stereo not drawn), the IC50 in the experiment on DU145 was 1000 to 5000 nM; in the experiment on A549, 1000 to 5000 nM; in experiment [1] it was 50 to 250 nM; on VEGF receptor KDR, less than 50 nM.
For `CN1CCN(C(=O)CC(=O)Nc2ccc(Oc3ccnc4cc(-c5cn(C)cn5)sc34)c(F)c2)c2ccccc21`, the IC50 with DU145 was 1000 to 5000 nM; with A549, 1000 to 5000 nM; in experiment [1], less than 50 nM; on VEGF receptor KDR, less than 50 nM.
In the case of `CN1CCN(Cc2ccc(-c3cc4nccc(Oc5ccc(NC(=O)CC(=O)Nc6ccccc6)cc5F)c4s3)nc2)CC1`, the IC50 with DU145 was less than 1000 nM; with A549 it was 1000 to 5000 nM; in experiment [1], less than 50 nM; at VEGF receptor KDR, less than 50 nM.
`CN1CCN(Cc2ccc(-c3cc4nccc(Oc5ccc(NC(=O)C6(C(=O)Nc7ccc(F)cc7)CC6)cc5F)c4s3)cc2)CC1`: the IC50 in the experiment with DU145 is less than 1000 nM; with A549, less than 1000 nM; in experiment [1], less than 50 nM; on VEGF receptor KDR it was less than 50 nM.
Turning to `Cn1cnc(-c2cc3nccc(Nc4ccc(NC(=O)C5(C(=O)Nc6ccccc6)CC5)cc4F)c3s2)c1`, the IC50 with DU145 is less than 1000 nM; in the experiment on A549, less than 1000 nM; in experiment [1], less than 50 nM; on VEGF receptor KDR, 50 to 250 nM.
For the molecule `Cn1cnc(-c2cc3nccc(Oc4ccc(NC(=O)C5CCN(c6ccccc6F)C5=O)cc4F)c3s2)c1` (stereo not drawn), the IC50 with DU145 is 1000 to 5000 nM; in the experiment on A549 it was less than 1000 nM; in experiment [1], 50 to 250 nM; at VEGF receptor KDR, 250 to 500 nM.
In the same order, the values of `O=C(Nc1ccc(Oc2ccnc3cc(-c4cn(CCN5CCCC5)cn4)sc23)c(F)c1)C1CCN(c2ccccc2)C1=O` (stereo not drawn) are less than 1000 nM, 1000 to 5000 nM, 50 to 250 nM and less than 50 nM.
Turning to `CN1CCN(Cc2ccc(-c3cc4nccc(Oc5ccc(NC(=O)N6CCN(c7ccccc7)C6=O)cc5F)c4s3)cc2)CC1`, the IC50 with DU145 was less than 1000 nM; in the experiment with A549 it was less than 1000 nM; in experiment [1] it was less than 50 nM; at VEGF receptor KDR, less than 50 nM.
For `CCN(C(=O)CC(=O)Nc1ccc(Oc2ccnc3cc(-c4cn(CC)cn4)sc23)c(F)c1)c1ccccc1`, the IC50 in the experiment on DU145 is 1000 to 5000 nM; with A549, 1000 to 5000 nM; in experiment [1], 50 to 250 nM; at VEGF receptor KDR, less than 50 nM.
`Cn1cnc(-c2cc3nccc(Oc4ccc(NC(=O)C5CCN(c6cccnc6)C5=O)cc4F)c3s2)c1` (stereo not drawn): the IC50 in the experiment with DU145 was in the range of 1000 to 5000 nM; in the experiment on A549, 1000 to 5000 nM; in experiment [1], 250 to 500 nM; on VEGF receptor KDR, 250 to 500 nM.
For `O=C(CC(=O)Nc1ccc(Oc2ccnc3cc(-c4ccc(CN5CCNCC5)cc4)sc23)c(F)c1)Nc1ccccc1`, the IC50 with DU145 was less than 1000 nM; in the experiment on A549, 1000 to 5000 nM; in experiment [1], less than 50 nM; at VEGF receptor KDR it was less than 50 nM.
`CN1CC=C(c2cc3nccc(Oc4ccc(NC(=O)C5(C(=O)Nc6ccccc6)CC5)cc4F)c3s2)CC1`: the IC50 was less than 1000 nM with DU145, 1000 to 5000 nM with A549, less than 50 nM in experiment [1] and less than 50 nM on VEGF receptor KDR.
As to `CN1CCN(Cc2ccc(-c3cc4nccc(Oc5ccc(NC(=O)C6(C(=O)Nc7ccccc7)CC6)cc5F)c4s3)cc2)CC1`, the IC50 with DU145 was less than 1000 nM; in the experiment with A549, less than 1000 nM; in experiment [1] it was less than 50 nM; on VEGF receptor KDR, less than 50 nM.
`COc1cccc(Nc2cc3nccc(Oc4ccc(NC(=O)CC(=O)Nc5ccccc5)cc4F)c3s2)c1`: the IC50 was 1000 to 5000 nM with DU145, 1000 to 5000 nM with A549, 50 to 250 nM in experiment [1] and greater than 500 nM on VEGF receptor KDR.
`O=C(CC(=O)Nc1ccc(Oc2ccnc3cc(-c4cccc[n+]4[O-])sc23)c(F)c1)Nc1ccccc1`: the half-maximal inhibitory concentration (IC50) in the experiment with DU145 is less than 1000 nM; with A549, less than 1000 nM; in experiment [1] it was less than 50 nM; on VEGF receptor KDR, less than 50 nM.
`Cn1cnc(-c2cc3nccc(Oc4ccc(NC(=O)N5CCN(c6ccc(F)cc6)C5=O)cc4F)c3s2)c1`: the IC50 in the experiment with DU145 is less than 1000 nM; in the experiment with A549 it was less than 1000 nM; in experiment [1] it was less than 50 nM; at VEGF receptor KDR, less than 50 nM.
`O=C(Nc1ccc(Oc2ccnc3cc(-c4cn(CCN5CCCC5)cn4)sc23)c(F)c1)N1CCN(c2ccccc2)C1=O`: the IC50 in the experiment on DU145 is less than 1000 nM; with A549 it was less than 1000 nM; in experiment [1], less than 50 nM; at VEGF receptor KDR, less than 50 nM.
`CC(C)N(C(=O)CC(=O)Nc1ccc(Oc2ccnc3cc(C4=CCN(C)CC4)sc23)c(F)c1)c1ccccc1`: the IC50 in the experiment with DU145 was greater than 10000 nM; with A549, greater than 10000 nM; in experiment [1], 250 to 500 nM; on VEGF receptor KDR, greater than 500 nM.
Consider `Cn1ccnc1-c1cc2nccc(Oc3ccc(NC(=O)N4CCN(c5ccccc5)C4=O)cc3F)c2s1`, for which the IC50 in the experiment on DU145 is less than 1000 nM; in the experiment on A549, less than 1000 nM; in experiment [1], less than 50 nM; on VEGF receptor KDR it was less than 50 nM.
Turning to `CN1CC=C(c2cc3nccc(Oc4ccc(NC(=O)N5CCN(c6ccccc6)C5=O)cc4F)c3s2)CC1`, the concentration for half-maximal inhibition (IC50) with DU145 is less than 1000 nM; with A549, less than 1000 nM; in experiment [1] it was less than 50 nM; on VEGF receptor KDR, 50 to 250 nM.
As for `Cn1ccnc1-c1cc2nccc(Sc3ccc(NC(=O)N4CCN(c5ccccc5)C4=O)cc3)c2s1`, the IC50 in the experiment on DU145 was less than 1000 nM; with A549, less than 1000 nM; in experiment [1], less than 50 nM; on VEGF receptor KDR it was 50 to 250 nM.
Take `CCn1cnc(-c2cc3nccc(Oc4ccc(NC(=O)CC(=O)N5CCc6ccccc65)cc4F)c3s2)c1`: the IC50 with DU145 is less than 1000 nM; with A549, less than 1000 nM; in experiment [1], less than 50 nM; on VEGF receptor KDR, less than 50 nM.
For the molecule `CCn1cnc(-c2cc3nccc(Oc4ccc(NC(=O)CC(Nc5ccccc5)C(F)(F)F)cc4F)c3s2)c1` (stereo not drawn), the IC50 with DU145 was 1000 to 5000 nM; in the experiment on A549, 1000 to 5000 nM; in experiment [1], 50 to 250 nM; on VEGF receptor KDR, 50 to 250 nM.
For the molecule `CCn1cnc(-c2cc3nccc(Oc4ccc(NC(=O)CC(=O)N5CCOc6ccccc65)cc4F)c3s2)c1`, the half-maximal inhibitory concentration (IC50) is less than 1000 nM in the experiment on DU145, less than 1000 nM in the experiment with A549, less than 50 nM in experiment [1] and less than 50 nM on VEGF receptor KDR.
Turning to `O=C(Nc1ccc(Oc2ccnc3cc(-c4ccc(CN5CCNCC5)cc4)sc23)c(F)c1)N1CCN(c2ccccc2)C1=O`, the IC50 in the experiment with DU145 was less than 1000 nM; in the experiment with A549, less than 1000 nM; in experiment [1], less than 50 nM; at VEGF receptor KDR, less than 50 nM.
Consider `CNC(=O)N1CCN(Cc2ccc(-c3cc4nccc(Oc5ccc(NC(=O)N6CCN(c7ccccc7)C6=O)cc5F)c4s3)cc2)CC1`, for which the IC50 with DU145 is less than 1000 nM; with A549, less than 1000 nM; in experiment [1] it was less than 50 nM; at VEGF receptor KDR, less than 50 nM.
`CCn1ccnc1-c1cc2nccc(Oc3ccc(NC(=O)N4CCN(c5ccccc5)C4=O)cc3F)c2s1`: the half-inhibitory concentration (IC50) with DU145 is less than 1000 nM; in the experiment with A549, less than 1000 nM; in experiment [1], less than 50 nM; on VEGF receptor KDR it was less than 50 nM.
With `Cn1ccnc1-c1cc2nccc(Oc3ccc(NC(=O)N4CCN(c5ccc(F)cc5)C4=O)cc3F)c2s1`, the IC50 is less than 1000 nM in the experiment with DU145, less than 1000 nM in the experiment on A549, 50 to 250 nM in experiment [1] and less than 50 nM on VEGF receptor KDR.
As for `Cn1cnc(-c2cc3nccc(Oc4ccc(NC(CC(=O)Nc5ccc(F)cc5)C(F)(F)F)cc4F)c3s2)c1` (stereo not drawn), the IC50 was less than 1000 nM in the experiment with DU145, less than 1000 nM in the experiment with A549, 50 to 250 nM in experiment [1] and less than 50 nM at VEGF receptor KDR.
For the molecule `Cn1ccnc1-c1cc2nccc(Oc3ccc(NC(=S)N4CCN(c5ccc(F)cc5)C4=O)cc3F)c2s1`, the IC50 in the experiment on DU145 is less than 1000 nM; with A549, less than 1000 nM; in experiment [1], 50 to 250 nM; at VEGF receptor KDR it was less than 50 nM.
In the case of `CCn1cnc(-c2cc3nccc(Oc4ccc(NC(=O)N5CCN(c6ccc(F)cc6)C5=O)cc4F)c3s2)c1`, the IC50 in the experiment with DU145 is less than 1000 nM; with A549 it was less than 1000 nM; in experiment [1] it was less than 50 nM; at VEGF receptor KDR it was less than 50 nM.
Take `O=C(Nc1ccc(Oc2ccnc3cc(-c4cn(CCCN5CCCC5)cn4)sc23)c(F)c1)N1CCN(c2ccc(F)cc2)C1=O`: the IC50 is less than 1000 nM in the experiment with DU145, less than 1000 nM in the experiment on A549, less than 50 nM in experiment [1] and less than 50 nM at VEGF receptor KDR.
`O=C(Nc1ccc(Oc2ccnc3cc(-c4cn(CCCN5CCCC5)cn4)sc23)c(F)c1)N1CCN(c2ccccc2F)C1=O`: the half-maximal inhibitory concentration (IC50) is greater than 10000 nM with DU145, 5000 to 10000 nM in the experiment with A549, 50 to 250 nM in experiment [1] and less than 50 nM on VEGF receptor KDR.
